Data published in ChEMBL document CHEMBL1201862, “PubChem BioAssay data set” (2004).
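48-hour exposure; five concentrations; linearly interpolated endpoints. GI50: concentration for 50% inhibition of growth.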 Active and inactive are the calls of the source. Rule as the data show it: active = GI50 up to about 1.1 µM and inactive = higher.

What was measured:
Experiment in all cases: growth of human tumour cells (NCI), 48 h
[1] = tested on: A498
[2] = tested on: CCRF-CEM
[3] = tested on: HCT-116
[4] = tested on: HOP-92
[5] = tested on: K562
[6] = tested on: KM12
[7] = tested on: Malme-3M
[8] = tested on: OVCAR-3
[9] = tested on: OVCAR-4
[10] = tested on: OVCAR-5
[11] = tested on: RPMI-8226
[12] = tested on: SF-268
[13] = tested on: SF-295
[14] = tested on: SK-MEL-28
[15] = tested on: SK-MEL-5
[16] = tested on: SN12C
[17] = tested on: SNB-75
[18] = tested on: SW-620
[19] = tested on: U-251
[20] = tested on: UACC-62

Measured: GI50

CN1CCN(P2(=S)Oc3ccc4ccccc4c3-c3c(ccc4ccccc34)O2)CC1
inactive: [1] 52.5 µM | [2] 29.8 µM | [3] 32.7 µM | [4] 13.6 µM | [5] 20.7 µM | [6] 21.6 µM | [7] 21.4 µM | [8] 27.9 µM | [9] 36.6 µM | [10] 54.7 µM | [11] 7.8 µM | [12] 38.4 µM | [13] 34.9 µM | [14] 41.1 µM | [15] 22.2 µM | [16] 33.5 µM | [17] 37.5 µM | [18] 39 µM | [19] 32.7 µM | [20] 34.5 µM

CCOC(=O)/C=C/c1c(C)[nH]c(=O)[nH]c1=O
inactive: [1] > 250 µM | [2] > 250 µM | [3] > 250 µM | [4] 19.1 µM | [5] > 250 µM | [6] > 250 µM | [7] > 250 µM | [8] > 242 µM | [9] > 158 µM | [10] > 94.4 µM | [11] > 250 µM | [12] > 250 µM | [13] > 250 µM | [14] > 250 µM | [15] > 250 µM | [16] > 250 µM | [17] > 250 µM | [18] > 250 µM | [19] > 250 µM | [20] > 250 µM
